Values joined by “and” are separate entries in the source; they are usually repeats but may differ in a detail not shown here. Equal values may be shown once. Read-outs that look alike come from different tables or passages of the source. Marks after values point to notes of the source that are not given here.
Tests used:
Assay in all cases: cell-based
[1] = target: T1, TraR (Agrobacterium tumefaciens, UniProt P33905); conditions: for Activation (%) / Inhibition (%): A. tumefaciens-TraR; for Activation (%): Library C primary agonism screen; for Inhibition (%): Library C primary antagonism screen; for A. tumefaciens-TraR Activation [%]: 10 μM ligand; for A. tumefaciens-TraR Activation [%] / A. tumefaciens-TraR Inhibition [%] / inhibition at 10 µM: A. tumefaciens WCF47 (pCF372), normalized to OOHL; for A. tumefaciens-TraR Inhibition [%]: 10 μM synthetic ligand against 100 nM OOHL; for activation at 10 µM: read-out: A. tumefaciens-TraR Activation [%]; for inhibition at 10 µM: read-out: A. tumefaciens-TraR Inhibition [%], 10 μM synthetic ligand against 100 nM OOHL
T1 construct: These strains lack their AHL synthase (I) genes, but retain their native R genes; endogenous in cells; host or cells: A. tumefaciens WCF47 (Δ-traI) with PtraI-lacZ plasmid pCF372
T1 sequence (P33905 whole entry): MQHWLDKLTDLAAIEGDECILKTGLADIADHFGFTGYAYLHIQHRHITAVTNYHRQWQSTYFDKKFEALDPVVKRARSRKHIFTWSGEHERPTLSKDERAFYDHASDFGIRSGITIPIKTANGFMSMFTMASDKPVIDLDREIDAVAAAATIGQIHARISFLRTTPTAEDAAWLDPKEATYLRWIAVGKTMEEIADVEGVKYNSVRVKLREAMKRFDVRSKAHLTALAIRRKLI
Method: A. tumefaciens reporter gene assay protocols. […] An overnight culture of A. tumefaciens WCF47 (pCF372) was diluted to an OD600 of 0.1 in fresh AB minimal medium containing 400 μg/mL octopine and 50 μg/mL streptomycin. A 200 μL-portion of the diluted culture was added to each well of the multititer plate containing AHLs. Plates were grown at 28° C. for 18-20 h in a rotary shaking incubator (200 rpm). The cultures were then assayed for β-galactosidase activity following the Miller assay method. Briefly, 200 μL aliquots of bacteria from each of the wells were added to wells of a polystyrene 96-well plate and the OD600 of each well was recorded. Next, 50 μL aliquots from each well were transferred to a solvent resistant 96-well plate containing 200 μL Z buffer, 8 μL CHCl3 and 4 μL 0.1% aq. sodium dodecylsulfate (SDS). This suspension was mixed via repetitive pipetting, after which the CHCl3 was allowed to settle. A 100-μL aliquot from each well was transferred to a fresh polystyrene 96-well plate, and 20 μL of substrate, o-nitrophenyl-β-D-galactopyranoside (ONPG, 4 μg/mL in phosphate buffer), was added at time zero. After the development of appropriate yellow color (ca. 15-35 min), the reaction was terminated by the addition of 50 μL of 1 M Na2CO3. Absorbance at 420 nm and 550 nm was measured for each well using a plate reader, and Miller units were calculated according to standard methods.
(§1) Dose response reporter gene assays. […] IC50 and EC50 values were calculated using GraphPad Prism software (v. 4.0) using a sigmoidal curve fit.
A. tumefaciens reporter gene assay protocols. […] An overnight culture of A. tumefaciens WCF47 (pCF372) was diluted 1:10 with fresh AB minimal medium containing 400 μg/mL octopine and 50 μg/mL streptomycin. A 200 μL portion of the diluted culture was added to each well of the multititer plate containing AHLs. Plates were incubated at 28° C. for 18-24 h. The cultures were then assayed for β-galactosidase activity following the Miller assay method. Briefly, 200 μL aliquots of bacteria from each of the wells were added to wells of a 96-well multititer plate, and the OD600 of each well was recorded. Next, 50 μL aliquots from each well were transferred to a solvent resistant 96-well multititer plate containing 200 μL Z buffer, 8 μL CHCl3 and 4 μL 0.1% aq. SDS. This suspension was mixed via repetitive pipetting, after which the CHCl3 was allowed to settle. A 100 μL aliquot from each well was transferred to a fresh 96-well multititer plate, and 20 μL of substrate, o-nitrophenyl-β-D-galactopyranoside (ONPG, 4 μg/mL in phosphate buffer), was added at time zero. After the development of appropriate yellow color (ca. 20-30 min), the reaction was terminated by the addition of 50 μL of 1 M Na2CO3. Absorbances at 420 nm and 550 nm were measured for each well using a plate reader, and Miller units were calculated according to standard methods.
as §1

[2] = target: T2, LasR (Pseudomonas aeruginosa, UniProt P25084); format: cell-based; conditions: for Inhibition (%): E. coli-LasR, Library C primary antagonism screen; for E. coli-LasR Inhibition [%]: 5 μM synthetic ligand against 7.5 nM OdDHL; for E. coli-LasR Inhibition [%] / inhibition at 5 µM: E. coli DH5α (pJN105L pSC11), normalized to OdDHL; for inhibition at 5 µM: read-out: E. coli-LasR Inhibition [%], 5 μM synthetic ligand against 7.5 nM OdDHL
T2 construct: expressed in transfected cells; host or cells: E. coli DH5α (pJN105L pSC11), arabinose-induced
T2 sequence (P25084 whole entry): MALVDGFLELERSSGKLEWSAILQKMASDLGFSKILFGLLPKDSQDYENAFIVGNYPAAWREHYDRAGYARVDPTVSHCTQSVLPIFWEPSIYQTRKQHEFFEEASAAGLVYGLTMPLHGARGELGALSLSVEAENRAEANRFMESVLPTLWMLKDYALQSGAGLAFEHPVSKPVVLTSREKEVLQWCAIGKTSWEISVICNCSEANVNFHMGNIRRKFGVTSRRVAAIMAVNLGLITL
Method: (§2) E. coli LasR reporter gene assay protocols. […] An overnight culture of E. coli DH5a (pJN105L pSC11) grown at 37° C. was subculture by diluting 1/10 in fresh LB medium containing 100 μg/mL ampicillin and 15 μg/mL gentamicin and shaking at 37° C. until OD600=0.3. Arabinose (4 mg/mL) was then added to induce the LasR promoter and a 200 μL-portion of this culture was added to each well of the multititer plate containing AHLs. Plates were grown at 37° C. for 2 hours in a rotary shaking incubator (200 rpm; OD600=0.45). The cultures were then assayed for activity following the identical β-galactosidase assay protocols used in the A. tumefaciens reporter gene assays.
as §1
(§3) E. coli LasR reporter gene assay protocols. […] An overnight culture of E. coli DH5α (pJN105L pSC11) was diluted 1:10 with fresh LB medium containing 100 μg/mL ampicillin and 15 μg/mL gentamicin. This sub-culture was incubated at 37° C. until OD600=0.3 (4-6 h). Arabinose (4 mg/mL) was then added to induce the LasR promoter, and a 200 μL portion of this culture was added to each well of the multititer plate containing AHLs. Plates were incubated at 37° C. until OD600=0.45 (4-6 h). The cultures were then assayed for LasR activity following the identical β-galactosidase assay protocols used in the A. tumefaciens reporter gene assays (see above).
as §1

[3] = target: T2, LasR; conditions: for Activation (%): E. coli-LasR, Library C primary agonism screen; for E. coli-LasR Activation [%]: 5 μM ligand; for E. coli-LasR Activation [%] / activation at 5 µM: E. coli DH5α (pJN105L pSC11), normalized to OdDHL; for activation at 5 µM: read-out: E. coli-LasR Activation [%], 5 μM ligand
Method: as §2, §1, §3, §1

[4] = target: T3, LuxR (Aliivibrio fischeri, UniProt P35327); format: cell-based, Vibrio fischeri; conditions: for Inhibition (%): V. fischeri-LuxR, Library C primary antagonism screen; for V. fischeri-LuxR Inhibition [%]: 5 μM synthetic ligand against 5 μM OHHL; for V. fischeri-LuxR Inhibition [%] / inhibition at 5 µM: V. fischeri ES114 (Δ-luxI), normalized to OHHL; for IC50: LuxR IC50, determined against 5 μM OHHL; for inhibition at 5 µM: read-out: V. fischeri-LuxR Inhibition [%], 5 μM synthetic ligand against 5 μM OHHL
T3 construct: a Δ-luxI derivative of V. fischeri ES114, in which the native lux operon behaves as the bioluminescent reporter; endogenous in cells; host or cells: V. fischeri ES114 (Δ-luxI)
T3 sequence (P35327 whole entry): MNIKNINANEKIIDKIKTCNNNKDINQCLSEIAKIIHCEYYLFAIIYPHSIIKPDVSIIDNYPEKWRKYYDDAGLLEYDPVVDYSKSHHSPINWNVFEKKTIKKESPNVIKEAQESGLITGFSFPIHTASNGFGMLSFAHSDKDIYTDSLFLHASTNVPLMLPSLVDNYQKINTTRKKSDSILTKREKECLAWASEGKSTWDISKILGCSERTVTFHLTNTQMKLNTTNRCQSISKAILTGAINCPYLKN
Method: (§4) Luminescence assays. For agonism assays, an appropriate amount of AHL stock solution was added into a 96-well plate. An overnight culture of E. coli or V. fischeri was diluted 1:10 with appropriate media (LB plus 10 μg/mL tetracycline for E. coli; LBS for V. fischeri). A 200-μL portion of the diluted culture was added to each well of the plate. Plates were grown for 4-8 h with shaking (200 rpm; 30° C. for E. coli and RT for V. fischeri). Luminescence was measured using a multilabel plate reader and normalized to cell density. […] All assays were performed in triplicate. Graphpad Prism software was used to calculate IC50 and EC50 values.
(§5) Vibrio fischeri assay procedures. […] An overnight culture of V. fischeri ES114 (WT, Δ-luxI or Δ-luxR) was diluted 1:10 with LBS medium. A-200 μL portion of the diluted culture was added to each well of the plate. Plates were grown at RT with shaking (200 rpm) until the OD600=0.35-0.4 (4-6 h). Luminescence then was measured and normalized to cell density per well. […] All assays were performed in triplicate. IC50 and EC50 values were calculated using GraphPad Prism software using a sigmoidal curve fit.
(§6) V. fischeri reporter gene assay protocols. […] An overnight culture of V. fischeri ES114 (D-luxI) was diluted 1:10 with LBS medium. A 200-μL portion of the diluted culture was added to each well of the multititer plate. Plates were grown at RT with shaking (200 rpm) until the OD600=0.35-0.4 (4-6 h). Luminescence then was measured and normalized to cell density per well.
as §1
(§7) V. fischeri reporter gene assay protocols. […] An overnight culture of V. fischeri ES114 (Δ-luxI) was diluted 1:10 with LBS medium. A200 μL portion of the diluted culture was added to each well of the multititer plate. Plates were incubated at RT until the OD600=0.35-0.4 (4-6 h). Luminescence then was measured and normalized to cell density per well.
as §1

[5] = target: T3, LuxR; set-up: species or system Vibrio fischeri; conditions: for Activation (%): V. fischeri-LuxR, Library C primary agonism screen; for V. fischeri-LuxR Activation [%]: 200 μM ligand; for V. fischeri-LuxR Activation [%] / activation at 200 µM: V. fischeri ES114 (Δ-luxI), normalized to OHHL; for activation at 200 µM: read-out: V. fischeri-LuxR Activation [%], 200 μM ligand
Method: as §4, §5, §6, §1, §7, §1

## 4-amino PHL [C21]
[1]
  Activation (%): 0%
  Inhibition (%): 5%
[2]
  Inhibition (%): 8%
[3]
  Activation (%): 0%
[4]
  Inhibition (%): 12%
[5]
  Activation (%): 3%

## 4-hydroxy PHL [B27]
[1]
  A. tumefaciens-TraR Activation [%]: 0%
  A. tumefaciens-TraR Inhibition [%]: 3%
[2]
  E. coli-LasR Inhibition [%]: 7%
[3]
  E. coli-LasR Activation [%]: 0%
[4]
  V. fischeri-LuxR Inhibition [%]: 12%
[5]
  V. fischeri-LuxR Activation [%]: 2%

## 4-hydroxy PHL [C23]
[1]
  Activation (%): 0%
  Inhibition (%): 3%
[2]
  Inhibition (%): 7%
[3]
  Activation (%): 0%
[4]
  Inhibition (%): 12%
[5]
  Activation (%): 2%

## 4-methyl PHL [B24]
[1]
  A. tumefaciens-TraR Activation [%]: 3%
  A. tumefaciens-TraR Inhibition [%]: 21%
[2]
  E. coli-LasR Inhibition [%]: 11%
[3]
  E. coli-LasR Activation [%]: 0%
[4]
  V. fischeri-LuxR Inhibition [%]: 58%
[5]
  V. fischeri-LuxR Activation [%]: 1%

## 4-methyl PHL [C19]
[1]
  Activation (%): 3%
  Inhibition (%): 21%
[2]
  Inhibition (%): 11%
[3]
  Activation (%): 0%
[4]
  Inhibition (%): 58%
[5]
  Activation (%): 1%

## CCCCCCCC(=O)N[C@H]1CCOC1=O [A3, C8 AHL]
[1]; determined against 100 nM OOHL, read-out: TraR IC50
  IC50: 770 nM
[1]
  activation at 10 µM: 7%
  inhibition at 10 µM: 83%
[2]
  E. coli-LasR Inhibition [%]: 43%
  inhibition at 5 µM: ≥ 50%
[2]; determined against 7.5 nM OdDHL, read-out: LasR IC50
  IC50: 1750 nM
[3]
  activation at 5 µM: 1%
[4]
  IC50: 770 nM
  inhibition at 5 µM: 86%
[5]
  activation at 200 µM: 12%

## CCCCCCCCCC(=O)NC1CCOC1=O (stereo not shown) [A4, C10 AHL]
[1]
  IC50: 1050 nM
  activation at 10 µM: 2%
  inhibition at 10 µM: 92%
[2]
  IC50: 250 nM
  inhibition at 5 µM: 34%
[2]; against 7.5 nM OdDHL, dose response curve did not reach 100% inhibition
  LasR: concentration at which the compound elicits its maximal inhibition (value in parentheses): (2.0)^f μM
[3]
  EC50: > 200000 nM
  activation at 5 µM: ≤ 44%
[4]
  IC50: 900 nM and 400 nM
  inhibition at 5 µM: 96%
[5]
  activation at 200 µM: 1%

## CCCCCCCCCCCC(=O)N[C@H]1CCOC1=O [A5, C12 AHL]
[1]
  activation at 10 µM: 1%
  inhibition at 10 µM: 22%
[2]
  inhibition at 5 µM: -10%
[3]
  activation at 5 µM: ~85%
[3]; read-out: LasR EC50
  EC50: 40 nM
[4]
  inhibition at 5 µM: 73%
[5]
  activation at 200 µM: 2%

## CCCCCCCCCCCCCCCC(=O)N[C@H]1CCOC1=O [A6]
[1]
  A. tumefaciens-TraR Activation [%]: 0%
  A. tumefaciens-TraR Inhibition [%]: 0%
[2]
  E. coli-LasR Inhibition [%]: 5%
[3]
  E. coli-LasR Activation [%]: 11%
[4]
  V. fischeri-LuxR Inhibition [%]: 27%
[5]
  V. fischeri-LuxR Activation [%]: 2%

## CCCCCCCCCCCS(=O)(=O)N[C@H]1CCOC1=O [A16]
[1]
  A. tumefaciens-TraR Activation [%]: 0%
  A. tumefaciens-TraR Inhibition [%]: 29%
[2]
  E. coli-LasR Inhibition [%]: 21%
[3]
  E. coli-LasR Activation [%]: 0%
[4]
  V. fischeri-LuxR Inhibition [%]: 74%
[5]
  V. fischeri-LuxR Activation [%]: 1%

## O=C(/C=C/c1ccccc1)N[C@H]1CCOC1=O [A19]
[1]
  A. tumefaciens-TraR Activation [%]: 3%
  A. tumefaciens-TraR Inhibition [%]: 7%
[2]
  E. coli-LasR Inhibition [%]: 22%
[3]
  E. coli-LasR Activation [%]: 2%
[4]
  V. fischeri-LuxR Inhibition [%]: 48%
[5]
  V. fischeri-LuxR Activation [%]: 3%

From US7910622B2, “Modulation of bacterial quorum sensing with synthetic ligands” (Wisconsin Alumni Research Foundation, priority 2007, dated 2011)
